Reference: PMC9352027, “Targeting lipid biosynthesis pathways for hepatitis B virus cure” (PLoS ONE, 2022)

Columns and labels:
[1] = test system: HBeAg in HBV-infected HepG2-NTCP cells; assay: microbe, parasite or virus in culture; assay type: cell-based, Hepatitis B virus genotype D (AD38); conditions: HBV-infected HepG2-NTCP cells, three days of treatment, extracellular; read-out: HBeAg, EC50
Experimental: (§1) Production of wild-type HBV virions from HepAD38 cells was performed as previously described. HepG2-NTCP cells were bulk plated on collagen coated flasks at a density of 6x10^6 cells/ T175 flask. Following a 3-day incubation at 37°C, cells were infected with genotype D (AD38) virus at […] in the presence of 4% PEG8000 and 2.5% DMSO. HepG2-NTCP cells were washed 3 times with OPTI-MEM and maintained in Dulbecco’s modified Eagle’s medium (DMEM) supplemented with 2% FBS and 2.5% DMSO for the following 4 days. HBV-infected HepG2-NTCP cells were trypsinized, resuspended in DMEM supplemented with 2% FBS and 1% DMSO, and seeded onto serially diluted small molecule inhibitors at a 0.5% final DMSO concentration (S1 Table) in 384-well collagen coated plates at a density of 20,000 cells/well for 3 additional days.
(§2) Cell culture supernatant (3 μL) was transferred to two 1536-well plates and HBsAg and HBeAg levels subsequently measured by HTRF (Cisbio). HBsAg was measured using Terbium conjugated (XTL-17) and D2 receptor conjugated (XTL19) anti-HBsAg antibodies, while HBeAg was measured using Terbium conjugated (GWB-F19420, Genway Biotech) and D2 receptor conjugated (GWB-24DEF, Genway Biotech) anti-HBeAg antibodies. […] was measured using an Envision plate reader at emissions of 665 nm and 615 nm. The ratio of 665/615 was used to plot compound dose response curves and EC50 values were calculated from the fit of the dose−response curves to a four-parameter equation.
(§3) (A) Schematic overview of the pathways involved in lipid biosynthesis, such as DNL, TG esterification and cholesterol biosynthesis. […] (B-D) HepG2-NTCP cells infected with HBV for three days were treated with selected compounds in an eight-point dose response. After three days of treatment, extracellular HBsAg and HBeAg levels as well as cell viability were measured.

[2] = test system: HBsAg secretion in HBV-infected HepG2-NTCP cells; assay: microbe, parasite or virus in culture; assay type: cell-based, Hepatitis B virus genotype D (AD38); conditions: HBV-infected HepG2-NTCP cells; for EC50: three days of treatment, extracellular, read-out: HBsAg, EC50; for inhibition of HBsAg secretion: maximal (up to)
Experimental: as §1, §2, §3

[3] = test system: HBV-infected HepG2-NTCP cells; assay: Cell viability by CellTiter Glo; assay type: cell-based, human; conditions: three days of treatment
Experimental: as §1
Cells were analyzed for cell viability by addition of CellTiter Glo (Promega) to the assay plates and analyzed using an Envision plate reader (Perkin Elmer). CC50 values were calculated from the fit of the dose−response curves to a four-parameter equation. All CC50 values represent geometric mean values of a minimum of four determinations.
as §3

| SMILES | EC50 [1] | EC50 [2] | CC50 [3] | selectivity HBsAg versus HBeAg [2] | inhibition of HBsAg secretion [2] |
| --- | --- | --- | --- | --- | --- |
| CC1=NN(c2ccc(OC(F)F)c(-c3cccnc3)c2)C(=O)C1C(=O)Nc1cccc(C(C)(F)F)c1 (centres unmarked) [ACSS2 Inhibitor, N-(3-(1,1-difluoroethyl)phenyl)-1-(4-(difluoromethoxy)-3-(pyridin-3-yl)phenyl)-3-methyl-5-oxo-4,5-dihydro-1H-pyrazole-4-carboxamide] | > 10 µM | > 10 µM | > 10 µM | – | – |
| O=C(O)c1ccccc1NS(=O)(=O)c1ccc(Cl)c([N+](=O)[O-])c1 [CPT2 Inhibitor, 2-((4-chloro-3-nitrophenyl)sulfonamido)benzoic acid] | > 10 µM | > 10 µM | > 10 µM | – | – |
| Nc1ncnc2c1C(=O)N(c1ccc([C@H]3CC[C@H](CC(=O)O)CC3)cc1)CCO2 [DGAT1 Inhibitor, 2-((1r,4r)-4-(4-(4-amino-5-oxo-7,8-dihydropyrimido[5,4-f][1,4]oxazepin-6(5H)-yl)phenyl)cyclohexyl)acetic acid] | > 10 µM | > 10 µM | – | – | – |
| CCN(CC)Cc1ccc(C(=O)N(CCc2ccccc2OC)[C@@H]2CCNC2)cc1 [SKI-1/S1P inhibitor, (R)-4-((diethylamino)methyl)-N-(2-methoxyphenethyl)-N-(pyrrolidin-3-yl)benzamide] | > 10 µM | 0.79 µM | > 10 µM | selective for HBsAg | up to 80% |
| C[C@H]1CCN1c1nc(N2C[C@@H]3[C@@H](CC(=O)O)[C@@H]3C2)cc(C(F)(F)F)n1 [KHK Inhibitor, 2-((1R,5S,6R)-3-(2-((S)-2-methylazetidin-1-yl)-6-(trifluoromethyl)pyrimidin-4-yl)-3-azabicyclo[3.1.0]hexan-6-yl)acetic acid] | > 10 µM | > 10 µM | – | – | – |
| Cc1nn(C)c2nc(NNC(=O)Nc3cc(Cl)nc(Cl)c3)cc(C(C)C)c12 [JTE-013, N-(2,6-dichloropyridin-4-yl)-2-(4-isopropyl-1,3-dimethyl-1H-pyrazolo[3,4-b]pyridin-6-yl)hydrazine-1-carboxamide] | > 10 µM | 6.7 µM | > 10 µM | – | – |
| Cc1cc(C)c(-c2[nH]c(C3CC3)nc2C)cc1C(=O)N1CC(F)(c2ccc(C#N)cc2)C1 [FASN inhibitor, 4-(1-(5-(2-cyclopropyl-4-methyl-1H-imidazol-5-yl)-2,4-dimethylbenzoyl)-3-fluoroazetidin-3-yl)benzonitrile] | > 10 µM | 0.081 µM | > 10 µM | selective for HBsAg | up to 80% |
| CC1(NC(=O)c2ccc3c(-c4ccccc4Cl)cn(-c4ccc(F)cc4)c3c2)CCS(=O)(=O)C1 (centres unmarked) [DGAT2 Inhibitor, 3-(2-chlorophenyl)-1-(4-fluorophenyl)-N-(3-methyl-1,1-dioxidotetrahydrothiophen-3-yl)-1H-indole-6-carboxamide] | > 10 µM | > 10 µM | > 10 µM | – | – |
| CCCCCCCCCCCCCCCCCCCC(=O)N[C@H]1CC[C@@]2(C)[C@@H](C1)C[C@@H](O)[C@@H]1[C@@H]2C[C@H](O)[C@]2(C)[C@@H]([C@H](C)CCC(=O)O)CC[C@@H]12 [SCD1 Inhibitor, (R)-4-((3S,5S,7R,8R,9S,10S,12S,13R,14S,17R)-7,12-dihydroxy-3-icosanamido-10,13-dimethylhexadecahydro-1H-cyclopenta[a]phenanthren-17-yl)pentanoic acid] | > 10 µM | > 10 µM | > 10 µM | – | – |
| CC(C)N(C)c1nc2cc(C(=O)O)ccc2nc1-c1ccc(F)cc1 [BioE-115, 2-(4-fluorophenyl)-3-(isopropyl(methyl)amino)quinoxaline-6-carboxylic acid] | > 10 µM | > 10 µM | > 10 µM | – | – |
| COC(=O)c1cc(Cl)c(O)c(S(=O)(=O)Nc2cc(-c3ccccc3)c(F)cc2F)c1 [ACLY Inhibitor, methyl 3-chloro-5-(N-(4,6-difluoro-[1,1'-biphenyl]-3-yl)sulfamoyl)-4-hydroxybenzoate] | > 10 µM | > 10 µM | > 10 µM | – | – |
